Experimental data reported in ChEMBL document CHEMBL1201862, “PubChem BioAssay data set” (2004).
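Compound exposure: 48 hours, 5 concentrations, 96-well plates. The concentration for 50% growth inhibition is given as GI50.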 Active and inactive are the calls of the source. No stated cut-off is given here; in the data, active = GI50 up to about 1.1 µM and inactive = higher.

Experiments:
Test in all cases: growth of human tumour cells (NCI), 48 h
IGROV-1 = tested on: IGROV-1
MOLT-4 = tested on: MOLT-4
SK-MEL-2 = tested on: SK-MEL-2
786-0 = tested on: 786-0
M14 = tested on: M14
K562 = tested on: K562
OVCAR-8 = tested on: OVCAR-8
HCT-15 = tested on: HCT-15
NCI-H522 = tested on: NCI-H522
LXFL 529 = tested on: LXFL 529
EKVX = tested on: EKVX
SK-OV-3 = tested on: SK-OV-3
T47D = tested on: T47D
BT-549 = tested on: BT-549
NCI/ADR-RES = tested on: NCI/ADR-RES
RXF 393 = tested on: RXF 393
HCT-116 = tested on: HCT-116
PC-3 = tested on: PC-3
Hs-578T = tested on: Hs-578T
A498 = tested on: A498

| SMILES | GI50 (IGROV-1) | GI50 (MOLT-4) | GI50 (SK-MEL-2) | GI50 (786-0) | GI50 (M14) | GI50 (K562) | GI50 (OVCAR-8) | GI50 (HCT-15) [µM] | GI50 (NCI-H522) | GI50 (LXFL 529) | GI50 (EKVX) | GI50 (SK-OV-3) | GI50 (T47D) | GI50 (BT-549) | GI50 (NCI/ADR-RES) | GI50 (RXF 393) | GI50 (HCT-116) | GI50 (PC-3) | GI50 (Hs-578T) | GI50 (A498) |
| --- | --- | --- | --- | --- | --- | --- | --- | --- | --- | --- | --- | --- | --- | --- | --- | --- | --- | --- | --- | --- |
| COc1ccc(-c2cc(O)c3cc4c(cc3n2)OCO4)c(OC)c1 | > 100 µM (inactive) | 30.2 µM (inactive) | 55.1 µM (inactive) | > 100 µM (inactive) | 33.5 µM (inactive) | 32 µM (inactive) | 96.6 µM (inactive) | 38.9 | 46.9 µM (inactive) | 45.7 µM (inactive) | 82.4 µM (inactive) | 87.3 µM (inactive) |  |  |  |  |  |  |  |  |
| CCN(CC)c1ccc2cc(-c3nnc(-c4ccccc4)o3)c(=O)oc2c1 | 28.9 µM (inactive) | 0.413 µM (active) | 19.9 µM (inactive) | 17 µM (inactive) | 32.1 µM (inactive) | 1.4 µM (inactive) | 28.1 µM (inactive) | 6.35 | 28.8 µM (inactive) |  | 59.8 µM (inactive) | 14.7 µM (inactive) | 23.4 µM (inactive) | > 57.1 µM (inactive) | 7.67 µM (inactive) | 14.5 µM (inactive) | 19.9 µM (inactive) | 30.8 µM (inactive) | > 84.9 µM (inactive) | 45.9 µM (inactive) |
| O=C1NC(=O)C(c2c[nH]c3ccccc23)=C1c1cnc[nH]1 | > 100 µM (inactive) | 8.47 µM (inactive) | 43.4 µM (inactive) | > 100 µM (inactive) | > 100 µM (inactive) | 5.61 µM (inactive) | > 100 µM (inactive) | > 100 | 56.8 µM (inactive) |  | > 100 µM (inactive) | > 100 µM (inactive) | > 100 µM (inactive) | 46.3 µM (inactive) | > 100 µM (inactive) | > 100 µM (inactive) | 41.8 µM (inactive) | > 100 µM (inactive) | 64.3 µM (inactive) | > 100 µM (inactive) |
| O=C1CCCCC/C=C2/CC[C@H](Sc3ccccc3)[C@@H]12 |  | 31.4 µM (inactive) | 71.9 µM (inactive) | > 100 µM (inactive) | > 100 µM (inactive) | > 100 µM (inactive) | 74.1 µM (inactive) | > 100 |  | > 100 µM (inactive) | 38.3 µM (inactive) | 82.2 µM (inactive) |  |  |  | 37.8 µM (inactive) | 52.4 µM (inactive) |  |  |  |
| N=C(N)SCc1nc(-c2ccc(Cl)cc2)no1 | 32.7 µM (inactive) | 3.56 µM (inactive) | 13.2 µM (inactive) | 14.3 µM (inactive) | 16.8 µM (inactive) | 5.71 µM (inactive) | 30.1 µM (inactive) | 11.2 | 10.6 µM (inactive) |  | 18.5 µM (inactive) | 26.9 µM (inactive) | 11.3 µM (inactive) | 23.2 µM (inactive) | 27.9 µM (inactive) | 12.1 µM (inactive) | 14.6 µM (inactive) | 14 µM (inactive) | 42 µM (inactive) | 16.8 µM (inactive) |
| C=CCN1C(N)=C(C#N)C(C#N)(C#N)C1CCC (centres undefined) | > 100 µM (inactive) | > 100 µM (inactive) | > 100 µM (inactive) | > 100 µM (inactive) | > 100 µM (inactive) | > 100 µM (inactive) | > 100 µM (inactive) | > 100 | > 100 µM (inactive) |  | 47.4 µM (inactive) | > 100 µM (inactive) | 54.8 µM (inactive) | > 100 µM (inactive) | > 100 µM (inactive) | > 100 µM (inactive) | > 100 µM (inactive) | > 100 µM (inactive) | > 100 µM (inactive) | > 100 µM (inactive) |
| COc1c2c(cc3c1C(O)N1CC[C@]34[C@H]3O[C@H]3[C@H](OC)C[C@@H]14)OCO2 (some centres undefined) | 64.9 µM (inactive) | > 100 µM (inactive) | 26.4 µM (inactive) | > 100 µM (inactive) | 85.3 µM (inactive) | 48 µM (inactive) | > 100 µM (inactive) | 67.3 | 31.9 µM (inactive) |  | > 100 µM (inactive) | 24.2 µM (inactive) | > 100 µM (inactive) | > 100 µM (inactive) | > 100 µM (inactive) | 67.5 µM (inactive) | 75 µM (inactive) | 39.3 µM (inactive) | > 100 µM (inactive) | 50.5 µM (inactive) |
| Cc1nc(C)c(C(=O)NNC(=O)Cc2ccccc2)cc1C(=O)NNC(=O)Cc1ccccc1 | > 100 µM (inactive) | > 100 µM (inactive) | > 100 µM (inactive) | > 100 µM (inactive) | > 100 µM (inactive) | > 100 µM (inactive) | > 100 µM (inactive) | > 100 | > 100 µM (inactive) |  | > 100 µM (inactive) | > 100 µM (inactive) | > 100 µM (inactive) | > 100 µM (inactive) | > 100 µM (inactive) | > 100 µM (inactive) | > 100 µM (inactive) | > 100 µM (inactive) | > 100 µM (inactive) | > 100 µM (inactive) |
| COC(=O)Nc1nc2cc(S(=O)(=O)NC(CC(C)C)C(=O)OC)ccc2[nH]1 (centres undefined) | 2.25 µM (inactive) | 3.67 µM (inactive) | 8.83 µM (inactive) | 3.14 µM (inactive) | 1.8 µM (inactive) | 3.06 µM (inactive) | 3.96 µM (inactive) | 2.81 | 0.197 µM (active) |  | 3.93 µM (inactive) | 4.53 µM (inactive) | 4.19 µM (inactive) | 35.7 µM (inactive) | 6.08 µM (inactive) | 3.21 µM (inactive) | 2.32 µM (inactive) | 2.37 µM (inactive) | 0.818 µM (active) | 3.13 µM (inactive) |
| COc1ccc(Nc2nc3ccccc3nc2C(=O)O)cc1 | 87.9 µM (inactive) | 84.1 µM (inactive) | > 100 µM (inactive) | 49.1 µM (inactive) | > 100 µM (inactive) | 63.4 µM (inactive) | 71.3 µM (inactive) | 36.1 | 92 µM (inactive) |  | 54.5 µM (inactive) | 9.04 µM (inactive) | 53.6 µM (inactive) | > 100 µM (inactive) | 38.9 µM (inactive) | > 100 µM (inactive) | 58.6 µM (inactive) | > 100 µM (inactive) | 16 µM (inactive) | > 100 µM (inactive) |
| COc1ccc(Oc2ccc3cc4c(cc3c2O)OCO4)c2cc(C)oc12 | 37.8 µM (inactive) | 14.3 µM (inactive) | 18.5 µM (inactive) | 35.8 µM (inactive) | 26.6 µM (inactive) | 14.6 µM (inactive) | 37.5 µM (inactive) | 22.1 | 20.9 µM (inactive) |  | 28.7 µM (inactive) | 52.7 µM (inactive) | 12.3 µM (inactive) | 22.5 µM (inactive) | 20.9 µM (inactive) | 15.7 µM (inactive) | 26.4 µM (inactive) | 24.8 µM (inactive) | 37.7 µM (inactive) | 38.3 µM (inactive) |
| FC(F)(F)c1ccc2c(c1)nc(Cc1ccc(Cl)c(Cl)c1)n2CC1CCCN2CCCCC12 (centres undefined) | 21.2 µM (inactive) | 37.4 µM (inactive) | 35.5 µM (inactive) | 16.2 µM (inactive) | 12.4 µM (inactive) | 32.5 µM (inactive) | 35.8 µM (inactive) | 30.8 | 14.2 µM (inactive) |  | 21.2 µM (inactive) | 31.3 µM (inactive) | 29 µM (inactive) | 28.6 µM (inactive) | 25.8 µM (inactive) | 23.6 µM (inactive) | 14.8 µM (inactive) | 30.5 µM (inactive) | 10.9 µM (inactive) | 25.4 µM (inactive) |
